The term IC50 denotes the point on the concentration scale where inhibition reaches its midpoint. Low readings indicate inhibition by little substance, high ones a need for much substance. One may read the EC50 as the midpoint of the concentration-response curve.

From patent US10030016B2 (Sunesis Pharmaceuticals, Inc., priority 2009, dated 2018) come the findings set out here.

Counter-ions that a name gives are not always drawn. Like-named read-outs stand apart in the source and are kept apart here.

The target of one assay is PDK1 (Homo sapiens (Human), UniProt O15530). Nature of the assay: PDK1 kinase assay (coupled PDK1/AKT/FAM-crosstide assay, IMAP fluorescence polarization). The assay is classed as biochemical. In a few lines: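 GST-tagged human PDK1 (aa 51-359, 0.75 nM) from insect cells activated unphosphorylated GST-AKT2 (aa 140-467–PIFtide fusion, 10 nM), which phosphorylated 100 nM FAM-crosstide; 40 μM ATP, pH 7.2 Tris/MgCl2, 30 min at 25° C. IMAP fluorescence polarization read-out; ΔmP versus compound concentration fitted with a 4-parameter curve.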
A general note: In fluorescence polarisation assays a small probe gives low polarisation when free and higher when bound to something large.

Assay [1] relates to phospho-akt (Thr308) in PC-3 cells. Nature of the assay: Inhibition of phospho-akt (Thr308) in PC-3 cells, MSD phospho-akt 308 ELISA kit. The class given is cell-based. The settings on record: 2 hours, no serum, read-out: EC50. In a few lines: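 Phospho-Akt (Thr308) levels were measured by MSD ELISA after PC-3 cells received compound for 2 hours in serum-free medium. Controls: DMSO (high), 5 μM wortmannin (low).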

The mark [2] stands for this setting: Homo sapiens, inhibition of P308 Akt in PC-3 cells using MSD.
The mark [3] stands for this setting: inhibition of phospo-PDK1 in vitro.
The mark [4] stands for this setting: Homo sapiens, inhibition of P308 Akt in PC-3 cells, MSD.

PDK1, sequence (O15530 51-359): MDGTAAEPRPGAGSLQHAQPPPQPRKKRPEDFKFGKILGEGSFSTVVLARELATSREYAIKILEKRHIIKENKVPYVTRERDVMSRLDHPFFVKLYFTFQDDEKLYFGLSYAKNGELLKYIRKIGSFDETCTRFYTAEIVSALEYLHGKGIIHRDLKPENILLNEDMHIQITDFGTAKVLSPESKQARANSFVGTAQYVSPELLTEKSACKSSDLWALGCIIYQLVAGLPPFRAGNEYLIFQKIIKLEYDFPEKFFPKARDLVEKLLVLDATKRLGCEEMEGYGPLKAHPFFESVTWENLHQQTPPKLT

At PDK1 (inhibition of PDK1 in vitro), `CNc1ncc(-c2ccc(CNc3ncc(C#N)cc3C(=O)N[C@@H](C)c3ccc(F)cc3)cc2)cc1F` [Example 109] showed a half-maximal inhibitory concentration (IC50) greater than 5 µM. The EC50 in assay [1] (setting [2]) is greater than 10 µM.

On to `Nc1n[nH]c2ncc(-c3ccc(CNc4ncc(C(F)(F)F)cc4C(=O)N[C@@H](CO)c4ccc(F)cc4)cc3)cc12` [Example 308, (R)-2-(4-(3-amino-1H-pyrazolo [3,4-b]pyridin-5-yl)benzylamino)-N-(1-(4-fluorophenyl)-2-hydroxyethyl)-5-(trifluoromethyl)nicotinamide], for which the IC50 on PDK1 (inhibition of PDK1 in vitro) was less than 0.1 µM. The EC50 in assay [1] (setting [2]) is less than 1 µM.

Take `C[C@H](NC(=O)c1cc(C#N)cnc1NCc1ccc(-c2ccc(NCCN(C)C)nc2)cc1)c1ccc(F)cc1` [Example 224, 5-Cyano-2-{4-[6-(2-dimethylamino-ethylamino)-pyridin-3-yl]-benzylamino}-N-[(S)-1-(4-fluoro-phenyl)-ethyl]-nicotinamide]: the IC50 at PDK1 (inhibition of PDK1 in vitro) was greater than 5 µM. The EC50 in assay [1] (setting [2]) was greater than 10 µM.

On PDK1 (inhibition of PDK1 in vitro), `C[C@H](NC(=O)c1cc(C#N)cnc1NCc1ccc(-c2cnc(N)c(F)c2)cc1)c1ccc(F)cc1` [Example 110, (S)-2-(4-(6-amino-5-fluoropyridin-3-yl)benzylamino)-5-cyano-N-(1-(4-fluorophenyl)ethyl)nicotinamide] returned an IC50 of less than 0.1 µM. Besides, the 50% effective concentration (EC50) in assay [1] (setting [2]) is less than 1 µM.

On to `CNCCCc1nc(-c2ccc(CNc3ncc(C#N)cc3C(=O)N[C@@H](C)c3ccc(F)cc3)cc2)cnc1N` [Example 93, 2-{4-[5-Amino-6-(3-methylamino-propyl)-pyrazin-2-yl]-benzyl-amino}-5-cyano-N-[(S)-1-(4-fluoro-phenyl)-ethyl]-nicotinamide], for which, on PDK1 (inhibition of PDK1 in vitro), the IC50 was less than 0.1 µM. Further, the 50% effective concentration (EC50) in assay [1] (setting [2]) was less than 1 µM.

On PDK1 (setting [3]), `CNc1cnc2ccc(-c3ccc(CNc4ncccc4C(=O)N[C@@H](C)c4ccc(F)c(F)c4)s3)cc2n1` [Example 4.28, (S)-N-(1-(3,4-difluoro-phenyl)ethyl)-2-(((5-(3-(methyl)amino)quinoxalin-6-yl)thiophen-2-yl)methylamino) nicotinamide] returned an IC50 of 0.1 to 1 µM. The EC50 in assay [1] (setting [4]) was 1 to 10 µM.

On PDK1 (inhibition of PDK1 in vitro), `C[C@H](NC(=O)c1nc(C#N)cnc1NCc1ccc(-c2cnc(N)c(O[C@H]3CCNC3)n2)cc1)c1ccc(F)c(F)c1` [Example 164, 3-{4-[5-Amino-6-((S)-pyrrolidin-3-yloxy)-pyrazin-2-yl]-benzylamino}-6-cyano-pyrazine-2-carboxylic acid [(S)-1-(3,4-difluoro-phenyl)-ethyl]-amide] yielded an IC50 of less than 0.1 µM. The EC50 in assay [1] (setting [2]) was less than 1 µM.

Consider `Cc1cc(-c2ccc(CNc3ncc(C(F)(F)F)cc3C(=O)NCc3ccc(F)c(F)c3)cc2)cnc1N` [Example 355, 2-(4-(6-amino-5-methylpyridin-3-yl)benzylamino)-N-(3,4-difluorobenzyl)-5-(trifluoromethyl)nicotinamide], for which the IC50 against PDK1 (inhibition of PDK1 in vitro) is less than 0.1 µM. Further, the half-maximal effective concentration (EC50) in assay [1] (setting [2]) lay in the range of 1 to 10 µM.

Regarding `Nc1ncnc2ccc(-n3cc(CNc4ncccc4C(=O)NCc4ccc(F)c(F)c4)nn3)cc12` [Ex. 9.1, 2-((1-(4-aminoquinazolin-6-yl)-1H-1,2,3-triazol-4-yl)methylamino)-N-(3,4-difluorobenzyl)nicotinamide], on PDK1 (setting [3]), the IC50 was 0.1 to 1 µM. In addition, the EC50 in assay [1] (setting [4]) was greater than 10 µM.

With `C[C@H](NC(=O)c1nc(C#N)cnc1NCc1ccc(-c2cnc(N)c(CCC3CCCNC3)n2)cc1)c1ccc(F)c(F)c1` (stereo partly shown) [Example 81], the IC50 on PDK1 is less than 0.1 µM. In addition, the EC50 in assay [1] (setting [2]) is 1 to 10 µM.

In turn, `CNC(=O)c1cc(S(=O)(=O)N2CCCCC2)cnc1NCc1ccc(-c2ccc3ncnc(N)c3c2)s1` [Example 8.6.19] had an IC50 against PDK1 (setting [3]) greater than 5 µM. The EC50 in assay [1] (setting [4]) is greater than 10 µM.

Regarding `CCOC(=O)c1cccnc1NCc1cc(OC(C)C)cc(-c2cn(S(=O)(=O)c3ccccc3)c3ncc(C(=O)NC4CC4)cc23)c1` [4.1.17], the half-inhibitory concentration (IC50) against PDK1 (setting [3]) was greater than 5 µM. Also, in assay [1] (inhibition of P308 Akt in PC-3 cells, MSD), the EC50 is greater than 10 µM.

Turning to `Nc1ncc(-c2ccc(CNc3ncc(C(F)(F)F)cc3C(=O)Nc3ccc(F)cc3)cc2)nc1O[C@H]1CCNC1` [Example 163, 2-{4-[5-Amino-6-((S)-pyrrolidin-3-yloxy)-pyrazin-2-yl]-benzylamino}-N-(4-fluoro-phenyl)-5-trifluoromethyl-nicotinamide], on PDK1 (inhibition of PDK1 in vitro), the IC50 is less than 0.1 µM. Further, the EC50 in assay [1] (setting [2]) is less than 1 µM.

Consider “2-(4-(3-amino-1H-pyrazolo [3,4-b]pyridin-5-yl) benzylamino)-N-(thiazol- 4-yl)-5-(trifluoromethyl) nicotinamide [Example 287]”, for which the IC50 at PDK1 (inhibition of PDK1 in vitro) fell in the range of 0.1 to 1 µM. Besides, in assay [1] (inhibition of P308 Akt in PC-3 cells using MSD), the EC50 was greater than 10 µM.

`CC(=O)Nc1ccc(-c2ccc(CNc3ncc(C#N)cc3C(=O)N[C@@H](C)c3ccc(F)cc3)cc2)cn1` [Example 105, (S)-2-(4-(6-acetamido-pyridin-3-yl)benzylamino)-5-cyano-N-(1-(4-fluorophenyl)ethyl) nicotinamide] came in with a concentration for half-maximal inhibition (IC50) on PDK1 (inhibition of PDK1 in vitro) of less than 0.1 µM. Further, the concentration for a half-maximal effect (EC50) in assay [1] (setting [2]) is less than 1 µM.

As for `CN(Cc1ccc(F)c(F)c1)C(=O)c1cccnc1NCc1ccc(-c2ccc3ncnc(N)c3c2)s1` [Example 3.13, 2-({[5-(4-aminoquinazolin-6-yl)thiophen-2-yl]methyl}amino)-N-(3,4-difluorobenzyl)-N-methylpyridine-3-carboxamide (TFA salt)], at PDK1 (setting [3]), the IC50 was 0.1 to 1 µM. For the same compound, the EC50 in assay [1] (setting [4]) was greater than 10 µM.

The compound `CC(C)NS(=O)(=O)c1cnc(NCc2ccc(-c3ccc4ncnc(N)c4c3)s2)c(C(=O)NCc2ccc(F)c(F)c2)c1` [Example 8.7.9, 2-({[5-(4-aminoquinazolin-6-yl)thiophen-2-yl]methyl}amino)-N-(3,4-difluorobenzyl)-5-(propan-2-ylsulfamoyl) pyridine-3-carboxamide] had an IC50 at PDK1 (setting [3]) of 0.1 to 1 µM. For the same compound, the 50% effective concentration (EC50) in assay [1] (Homo sapiens, PC-3, 2 h, inhibition of P308 Akt in PC-3 cells, MSD) was in the range of 1 to 10 µM.

In the case of `C[C@H](NC(=O)c1nc(C#N)cnc1NCc1ccc(-c2cnc(N)c(CCCN)n2)cc1)c1ccc(F)c(F)c1` [Example 94, 3-{4-[5-Amino-6-(3-amino-propyl)-pyrazin-2-yl]-benzyl-amino}-6-cyano-pyrazine-2-carboxylic acid [(S)-1-(3,4-difluoro-phenyl)-ethyl]-amide], the IC50 on PDK1 (inhibition of PDK1 in vitro) is less than 0.1 µM. In addition, the EC50 in assay [1] (setting [2]) was less than 1 µM.

`CCN(CC)CCNC(=O)c1cc(-c2ccc(CNc3ncc(C#N)cc3C(=O)N[C@@H](C)c3ccc(F)cc3)cc2)cnc1N` [Example 118] gave a half-maximal inhibitory concentration (IC50) on PDK1 (inhibition of PDK1 in vitro) of less than 0.1 µM. Also, in assay [1] (setting [2]), the EC50 lay in the range of 1 to 10 µM.

Regarding `C[C@H](NC(=O)c1nc(C#N)cnc1NCc1ccc(-c2ccn3ncnc(N)c23)cc1)c1ccc(F)c(F)c1` [Example 175, 3-[4-(4-Amino-pyrrolo [2,1-f][1,2,4]triazin-5-yl)-benzylamino]-6-cyano-pyrazine-2-carboxylic acid [(S)-1-(3,4-difluoro-phenyl)-ethyl]-amide], the 50% inhibitory concentration (IC50) on PDK1 (inhibition of PDK1 in vitro) was less than 0.1 µM. Further, in assay [1] (setting [2]), the EC50 is less than 1 µM.

For the compound `C[C@H](NC(=O)c1nc(C#N)cnc1NCC1CCC(c2cnc3[nH]nc(N)c3c2)CC1)c1ccc(F)c(F)c1` (stereo partly drawn) [Example 60, (S)-3-((4-(3-amino-1H-pyrazolo[3,4-b]pyridin-5-yl)cyclohexyl)methylamino)-6-cyano-N-(1-(3,4-difluorophenyl)ethyl)pyrazine-2-carboxamide], the IC50 against PDK1 (inhibition of PDK1 in vitro) is less than 0.1 µM. Further, the EC50 in assay [1] (setting [2]) was less than 1 µM.

Compound `C[C@H](NC(=O)c1nc(C#N)cnc1NCc1ccc(-c2cnc(N)c(CC[C@@H]3CCCN3)n2)cc1)c1ccc(F)c(F)c1` [Example 78, 3-{4-[5-Amino-6-((S)-2-pyrrolidin-2-yl-ethyl)-pyrazin-2-yl]-benzylamino}-6-cyano-pyrazine-2-carboxylic acid [(S)-1-(3,4-difluoro-phenyl)-ethyl]-amide] gave a 50% inhibitory concentration (IC50) on PDK1 (inhibition of PDK1 in vitro) of less than 0.1 µM. The EC50 in assay [1] (setting [2]) fell in the range of 1 to 10 µM.

For the compound `C[C@H](NC(=O)c1nccnc1NCc1ccc(-c2cnc3[nH]c(=O)[nH]c3c2)cc1)c1ccc(F)cc1` [Example 357, (S)-N-(1-(4-fluorophenyl)ethyl)-3-(4-(2-oxo-2,3-dihydro-1H-imidazo[4,5-b]pyridin-6-yl)benzylamino) pyrazine-2-carboxamide], on PDK1 (inhibition of PDK1 in vitro), the IC50 was less than 0.1 µM. The EC50 in assay [1] (setting [2]) was less than 1 µM.

Take `C[C@H](NC(=O)c1nc(C#N)cnc1NCc1ccc(-c2cn(CCN)c3ncnc(N)c23)cc1)c1ccc(F)c(F)c1` [Example 319, (S)-3-(4-(4-amino-7-(2-aminoethyl)-7H-pyrrolo[2,3-d]pyrimidin-5-yl)benzylamino)-6-cyano-N-(1-(3,4-difluoro-phenyl)ethyl)pyrazine-2-carboxamide]: the IC50 on PDK1 (inhibition of PDK1 in vitro) is less than 0.1 µM. In assay [1] (setting [2]), the EC50 is less than 1 µM.

Compound `C[C@H](NC(=O)c1nc(C#N)cnc1NCc1ccc(-c2cnc3[nH]nc(N)c3c2)nc1)c1ccc(F)c(F)c1` [Example 58, (S)-3-(((6-(3-amino-1H-pyrazolo[3,4-b]pyridin-5-yl)pyridin-3-yl)methyl)amino)-6-cyano-N-(1-(3,4-difluorophenyl)ethyl) pyrazine-2-carboxamide] showed an IC50 against PDK1 (inhibition of PDK1 in vitro) of less than 0.1 µM. For the same compound, the EC50 in assay [1] (setting [2]) was less than 1 µM.

For `C[C@H](NC(=O)c1cc(C#N)cnc1NCc1ccc(-c2cnc(N)c(CCCCO)n2)cc1)c1ccc(F)cc1` [Example 90, 2-{4-[5-Amino-6-(4-hydroxy-butyl)-pyrazin-2-yl]-benzyl-amino}-5-cyano-N-[(S)-1-(4-fluoro-phenyl)-ethyl]-nicotinamide], the IC50 on PDK1 (inhibition of PDK1 in vitro) is less than 0.1 µM. Besides, the EC50 in assay [1] (setting [2]) is less than 1 µM.
